Measured values reported in ChEMBL document CHEMBL3045237, “Synthesis, DNA binding, hemolytic, and anti-cancer assays of curcumin I-based ligands and their ruthenium(III) complexes” (Med Chem Res, 2013).

Columns and labels:
[1] = Hemolytic activity against Homo sapiens (human) RBC at 5 ug/ml after 1 hr by spectrophotometric analysis relative to control; assay type: ADME, cell-based, Erythrocyte; settings: red blood cells (RBC), read-out: Activity
[2] = Hemolytic activity against Homo sapiens (human) RBC at 100 ug/ml after 1 hr by spectrophotometric analysis relative to control; assay type: ADME, cell-based, Erythrocyte; settings: red blood cells (RBC), read-out: Activity
[3] = Hemolytic activity against Homo sapiens (human) RBC at 50 ug/ml after 1 hr by spectrophotometric analysis relative to control; assay type: cell-based, Erythrocyte; settings: red blood cells (RBC), read-out: Activity
[4] = Hemolytic activity against Homo sapiens (human) RBC at 10 ug/ml after 1 hr by spectrophotometric analysis relative to control; assay type: ADME, cell-based, Erythrocyte; settings: red blood cells (RBC), read-out: Activity
[5] = Hemolytic activity against Homo sapiens (human) RBC at 20 ug/ml after 1 hr by spectrophotometric analysis relative to control; assay type: ADME, cell-based, Erythrocyte; settings: red blood cells (RBC), read-out: Activity
[6] = tested on: HeLa; assay: Growth inhibition of Homo sapiens (human) HeLa cells at 0.5 mg/ml after 24 hr by MTS assay; assay type: functional; settings: read-out: GI
[7] = tested on: HT-29; assay: Growth inhibition of Homo sapiens (human) HT-29 cells at 0.5 mg/ml after 24 hr by MTS assay; assay type: functional; settings: HT-29, 24 h, read-out: GI
[8] = tested on: HeLa; assay: Growth inhibition of Homo sapiens (human) HeLa cells at 0.0005 mg/ml after 24 hr by MTS assay; assay type: functional; settings: read-out: GI
[9] = tested on: HeLa; assay: Growth inhibition of Homo sapiens (human) HeLa cells at 0.005 mg/ml after 24 hr by MTS assay; assay type: functional; settings: read-out: GI
[10] = tested on: HepG2; assay: Growth inhibition of Homo sapiens (human) HepG2 cells at 0.5 mg/ml after 24 hr by MTS assay; assay type: functional; settings: HepG2, 24 h, read-out: GI
[11] = tested on: MDA-MB-231; assay: Growth inhibition of Homo sapiens (human) MDA-MB-231 cells at 0.5 mg/ml after 24 hr by MTS assay; assay type: functional; settings: MDA-MB-231, 24 h, read-out: GI
[12] = tested on: MDA-MB-231; assay: Growth inhibition of Homo sapiens (human) MDA-MB-231 cells at 0.0005 mg/ml after 24 hr by MTS assay; assay type: functional; settings: MDA-MB-231, 24 h, read-out: GI
[13] = tested on: HeLa; assay: Growth inhibition of Homo sapiens (human) HeLa cells at 0.05 mg/ml after 24 hr by MTS assay; assay type: functional; settings: read-out: GI
[14] = tested on: MDA-MB-231; assay: Growth inhibition of Homo sapiens (human) MDA-MB-231 cells at 0.05 mg/ml after 24 hr by MTS assay; assay type: functional; settings: MDA-MB-231, 24 h, read-out: GI
[15] = tested on: HepG2; assay: Growth inhibition of Homo sapiens (human) HepG2 cells at 0.005 mg/ml after 24 hr by MTS assay; assay type: functional; settings: HepG2, 24 h, read-out: GI
[16] = tested on: HeLa; assay: Cytotoxicity against Homo sapiens (human) HeLa cells after 24 hr by MTS assay; assay type: functional, cell-based
[17] = tested on: MDA-MB-231; assay: Growth inhibition of Homo sapiens (human) MDA-MB-231 cells at 0.005 mg/ml after 24 hr by MTS assay; assay type: functional; settings: MDA-MB-231, 24 h, read-out: GI

Work on `N#Cc1ccc(C(c2ccc(C#N)cc2)n2cncn2)cc1` [LETROZOLE] yielded a hemolysis at 1 h, 5 ug/ml [1] of 22%, a hemolysis at 1 h, 100 ug/ml [2] of 98% and a hemolysis at 1 h, 50 ug/ml [3] of 80%. For the same compound, the hemolysis at 1 h, 10 ug/ml [4] was 32% and the hemolysis at 1 h, 20 ug/ml [5] was 60%.
Work on `COc1cc(/C=C/C(=N\NC(N)=O)C(=Cc2cc(OC)c(O)c(OC)c2)C(/C=C/c2ccc(O)c(OC)c2)=N/NC(N)=O)ccc1O` yielded a hemolysis at 1 h, 5 ug/ml [1] of 2%, an inhibition of growth at 500 µg/mL [6] of 53.1% and an inhibition of growth at 500 µg/mL [7] of 46.5%. For the same compound, the hemolysis at 1 h, 100 ug/ml [2] was 15%, the inhibition of growth at 0.5 µg/mL [8] was 40.1% and the hemolysis at 1 h, 50 ug/ml [3] was 9%. For the same compound, the inhibition of growth at 5 µg/mL [9] was 15.8%, the hemolysis at 1 h, 10 ug/ml [4] was 4% and the inhibition of growth at 500 µg/mL [10] was 48.1%. For the same compound, the inhibition of growth at 500 µg/mL [11] was 33.6%, the inhibition of growth at 0.5 µg/mL [12] was 8.79% and the hemolysis at 1 h, 20 ug/ml [5] was 3.9%. For the same compound, the inhibition of growth at 50 µg/mL [13] was 28.1%.
For `COc1cc(/C=C/C(=N\NC(N)=O)C(=Cc2ccc(O)cc2)C(/C=C/c2ccc(O)c(OC)c2)=N/NC(N)=O)ccc1O`, the hemolysis at 1 h, 5 ug/ml [1] was 8%, the inhibition of growth at 500 µg/mL [6] was 13.8% and the inhibition of growth at 50 µg/mL [14] was 7.64%. For the same compound, the inhibition of growth at 5 µg/mL [15] was 0.51%, the hemolysis at 1 h, 100 ug/ml [2] was 21% and the inhibition of growth at 0.5 µg/mL [8] was 30.8%. It also gave a hemolysis at 1 h, 50 ug/ml [3] of 18%, an IC50 [16] of 20.4 nM and an inhibition of growth at 5 µg/mL [9] of 33.5%. For the same compound, the hemolysis at 1 h, 10 ug/ml [4] was 10%, the inhibition of growth at 5 µg/mL [17] was 12.9% and the inhibition of growth at 500 µg/mL [10] was 0.74%. It also gave an inhibition of growth at 0.5 µg/mL [12] of 21.7%, a hemolysis at 1 h, 20 ug/ml [5] of 12% and an inhibition of growth at 50 µg/mL [13] of 35%.
